One block for each molecule: values may come before it.
Test: solvent given as SMILES

emission maximum (in ClCCl): 405 nm
Compound: c1ccc2c(-c3cc4c(ccc5sccc54)s3)cccc2c1

emission maximum (in ClCCl): 384 nm
Compound: c1ccc(-n2c3ccccc3c3cc(-c4cccc(-n5c6cccnc6c6c7sc8ccccc8c7ccc65)c4)ccc32)cc1

emission maximum (in ClCCl): 503 nm
Compound: C[Si]1(C)O[Si](C)(C)c2cc3c(-c4ccc(F)cc4)c4ccccc4nc3cc21

emission maximum (in ClCCl): 524 nm
Compound: CC1=C(c2ccc(N(C)C)cc2)C(C)=[N+]2C1=C(c1c(-c3ccccn3)nc3ccccn13)c1c(C)cc(C)n1[B-]2(F)F

emission maximum (in C1COCCO1): 559 nm
emission maximum (in CC#N): 651 nm
emission maximum (in ClCCl): 611 nm
Compound: CCCCN(CCCC)c1ccc(/C=C/c2ccc3nc(/C=C/c4ccc(N(C)C)cc4)c(=O)n(CCC)c3c2)cc1

emission maximum (in CCO): 582 nm
emission maximum (in ClCCl): 579 nm
Compound: Cc1ccccc1-c1c2ccc(=[N+]3CCOCC3)cc-2oc2cc(N3CCCCC3)ccc12

emission maximum (in ClCCl): 563 nm
emission maximum (in c1ccccc1): 530 nm
Compound: CCCCN(CCCC)c1ccc(C#Cc2cc(C#Cc3ccc(C#N)cc3)c(C#Cc3ccc(N(CCCC)CCCC)cc3)cc2C#Cc2ccc(C#N)cc2)cc1

emission maximum (in C1CCOC1): 450 nm
Compound: Cc1ccc(-c2cnc3nn4ccccc4c3n2)cc1

emission maximum (in ClC(Cl)Cl): 504 nm
Compound: O=C1NC(=O)c2ccc(N3CCOCC3)c3cccc1c23

emission maximum (in ClCCl): 461 nm
Compound: CCN(CC)c1ccc2c(c1)oc(=O)c1c(C)nc3c(c(-c4ccccc4)nn3C)c12

emission maximum (in CC#N): 532 nm
Compound: Cc1cccc2nc3c(=O)n(C)c(=O)nc-3n(C)c12

emission maximum (in ClCCl): 566 nm
Compound: COc1ccc2cc(/C=C/C3=CC(c4ccccc4)=[O+][B-](F)(F)O3)ccc2c1

emission maximum (in C1CCOC1): 685 nm
Compound: F[B-]1(F)n2c(/C=C/c3ccc(C(=C(c4ccccc4)c4ccccc4)c4ccccc4)cc3)ccc2C(c2ccc(C(=C(c3ccccc3)c3ccccc3)c3ccccc3)cc2)=C2C=CC(/C=C/c3ccc(C(=C(c4ccccc4)c4ccccc4)c4ccccc4)cc3)=[N+]21

emission maximum (in C1CCOC1): 384 nm
Compound: CC(C)(C)c1ccc2c(c1)c1cc(C(C)(C)C)cc3c1n2B1c2c-3cccc2-c2cc(C(C)(C)C)cc3c4cc(C(C)(C)C)ccc4n1c23

emission maximum (in CCO): 435 nm
emission maximum (in ClCCl): 406 nm
emission maximum (in O): 577 nm
Compound: Oc1ccc(-c2ccco2)cc1-c1nc2ccccc2s1

emission maximum (in C1CCOC1): 460 nm
Compound: N#Cc1c(N2CCCCC2)cc(-c2ccc3ccc4cccc5ccc2c3c45)c2c1-c1ccccc1C2

Compound: COc1ccc(N(c2ccc(/C=C(\C)c3ccccc3)cc2)c2ccc(/C=C(\C)c3ccccc3)cc2)cc1
emission maximum (in Cc1ccccc1): 435 nm

Compound: CC(C)(C)c1ccc(-c2nnc(-c3c(-n4c5ccccc5c5ccccc54)c(-n4c5ccccc5c5ccccc54)c(-n4c5ccccc5c5ccccc54)c(-n4c5ccccc5c5ccccc54)c3-n3c4ccccc4c4ccccc43)o2)cc1
emission maximum (in Cc1ccccc1): 482 nm

Compound: Cc1cc(-c2ccccc2)nc2c1ccc1nc(-c3ccccc3)cn12
emission maximum (in CC#N): 458 nm
emission maximum (in CCCCOC(C)=O): 449 nm
emission maximum (in CCOC(C)=O): 454 nm
emission maximum (in CO): 450 nm
emission maximum (in ClC(Cl)Cl): 448 nm
emission maximum (in ClCCl): 450 nm
emission maximum (in c1ccccc1): 451 nm

Compound: CC(=O)O[B-]1(OC(C)=O)OC(/C=C/C=C/c2ccccc2)=CC(/C=C/C=C/c2ccccc2)=[O+]1
emission maximum (in C1CCOC1): 531 nm
emission maximum (in CC#N): 550 nm
emission maximum (in CC(C)=O): 544 nm
emission maximum (in CS(C)=O): 558 nm
emission maximum (in Cc1ccccc1): 523 nm
emission maximum (in ClC(Cl)Cl): 543 nm
emission maximum (in ClCCl): 545 nm

emission maximum (in ClCCl): 447 nm
Compound: COc1ccc(-c2ccc(/C=C/c3ccncn3)cc2)cc1

emission maximum (in ClCCl): 462 nm
Compound: COc1cccc2cc(C#N)c(=N)oc12

emission maximum (in CCO): 458 nm
Compound: Cc1c(COC(=O)Cc2cccc3ccccc23)n2c(OCC(=O)Cc3cccc4ccccc34)c(C)c(=O)n2c1=O

emission maximum (in C1CCCCC1): 472 nm
emission maximum (in C1CCOC1): 500 nm
emission maximum (in CC#N): 516 nm
Compound: Cc1ccc2nc3c(nc2c1)c(-c1ccccc1)nn3C

emission maximum (in CS(C)=O): 381 nm
Compound: CCCn1c(-c2cc(-c3nc4ccccc4n3CCC)cc(-c3nc4ccccc4n3CCC)c2)nc2ccccc21

emission maximum (in ClCCl): 808 nm
Compound: Cc1ccc([N+]2=c3c4n(c5ccccc35)[B-](F)(F)[N+](c3ccc(C)cc3)=c3c=4n(c4ccccc34)[B-]2(F)F)cc1

emission maximum (in C1CCCCC1): 411 nm
emission maximum (in CC#N): 421 nm
emission maximum (in CO): 417 nm
emission maximum (in ClCCl): 418 nm
Compound: COc1c2ccccc2c(OC)c2c1c1c(F)cccc1n2C

emission maximum (in ClCCl): 608 nm
Compound: CCOC(=O)CCCCCn1c2ccc(N)cc2c(=O)c2cc3c(cc21)c(=O)c1cc(N)ccc1n3CCCCCC(=O)OCC

Compound: N#Cc1c(-n2c3ccccc3c3cc(Br)ccc32)c(-n2c3ccccc3c3cc(Br)ccc32)c(C#N)c(-n2c3ccccc3c3cc(Br)ccc32)c1-n1c2ccccc2c2cc(Br)ccc21
emission maximum (in Cc1ccccc1): 543 nm

emission maximum (in ClCCl): 426 nm
Compound: CC(C)(C)c1ccc(-n2c(-c3ccc(-c4ccc(-c5c(-c6ccccc6)nc6ccccn56)cc4)cc3)nc3c4ccccc4c4ccccc4c32)cc1

emission maximum (in CC#N): 536 nm
Compound: C[C@]12SC(=O)C=C1c1nc(-c3ccc(O)cc3)[nH]c1C1=CC(=O)S[C@@]12C

emission maximum (in CO): 717 nm
emission maximum (in CS(C)=O): 727 nm
Compound: CCC1=C(C)C2=Cc3c4ccccc4c4n3[B-](c3cc[n+](C)cc3)(Oc3ccccc3-4)[N+]2=C1C=Cc1ccc(OC)cc1 (stereo unspecified)

emission maximum (in C1CCCCC1): 407 nm
emission maximum (in CC#N): 450 nm
emission maximum (in CCO): 473 nm
emission maximum (in O): 489 nm
Compound: Cc1cc(=O)oc2c3c4c(cc12)CCCN4CCC3

emission maximum (in C1CCCCC1): 405.03 nm
emission maximum (in CC#N): 508.48 nm
emission maximum (in ClCCl): 471.15 nm
Compound: O=S1c2ccc(-c3c4ccccc4cc4ccccc34)cc2-c2cc(-c3c4ccccc4cc4ccccc34)ccc21

emission maximum (in C1CCOC1): 449 nm
Compound: N#Cc1c(N2CCCCC2)cc(-c2ccccc2)c2c1Cc1ccccc1-2

emission maximum (in CC#N): 539 nm
Compound: O=c1oc2ccccc2cc1/C=C/c1ccc([N+](=O)[O-])cc1

emission maximum (in ClCCl): 457 nm
emission maximum (in c1cc(-n2c3ccccc3c3ccccc32)cc(-n2c3ccccc3c3ccccc32)c1): 438 nm
Compound: c1ccc(N(c2ccccc2)c2ccc(-c3ccc4c(c3)C3(c5ccccc5Sc5ccccc53)c3cc(-c5ccc(N(c6ccccc6)c6ccccc6)cc5)ccc3-4)cc2)cc1

emission maximum (in CO): 798 nm
Compound: CC1(C)C(/C=C/C2=C(Oc3ccc(CCN=C=S)cc3Br)C(=C/C=C3/N(CCCS(=O)(=O)[O-])c4ccccc4C3(C)C)/CCC2)=[N+](CCCS(=O)(=O)[O-])c2ccccc21

emission maximum (in CC#N): 435 nm
Compound: N#Cc1nn(-c2cc(F)cc(F)c2)nc1N1CCCC1

emission maximum (in CC#N): 348 nm
emission maximum (in CO): 353 nm
emission maximum (in O): 400 nm
Compound: CN(C)CCCN1c2ccccc2CCc2ccc(Cl)cc21

emission maximum (in CCO): 527 nm
Compound: CCOC(=O)c1cc(C(=O)OCC)c2cccc(O)c2n1

Compound: N#Cc1cc(-c2ccc(F)cc2)cnc1O
emission maximum (in C1COCCO1): 422 nm
emission maximum (in CC1CCCCC1): 425 nm
emission maximum (in CC#N): 423 nm
emission maximum (in CC(C)O): 424 nm
emission maximum (in CCO): 425 nm
emission maximum (in CO): 425 nm
emission maximum (in CS(C)=O): 427 nm
emission maximum (in ClC(Cl)(Cl)Cl): 429 nm
emission maximum (in O): 425 nm

emission maximum (in ClCCl): 468 nm
Compound: c1ccc(N(c2ccccc2)c2ccc(-c3nc4c5ccccc5c5ccccc5c4n3-c3ccccc3)cc2)cc1

emission maximum (in ClCCl): 537 nm
Compound: c1cc(-c2ccc(-n3c4ccccc4c4ccccc43)cc2)c2nsnc2c1

emission maximum (in ClCCl): 486 nm
Compound: C(=C\c1c2ccccc2cc2ccccc12)/c1ccc(Oc2ccc3ccccc3c2-c2c(Oc3ccc(/C=C/c4c5ccccc5cc5ccccc45)cc3)ccc3ccccc23)cc1

Compound: Cc1cc(C)c(B(c2c(C)cc(C)cc2C)N2c3ccccc3C3(c4ccccc4-c4ccccc43)c3ccccc32)c(C)c1
emission maximum (in C1CCCCC1): 527 nm
emission maximum (in Cc1ccccc1): 538 nm
emission maximum (in ClCCl): 560 nm

emission maximum (in C1CCCCC1): 455 nm
Compound: N#Cc1c(-c2ccccc2)cc(N2c3ccccc3Oc3ccccc32)cc1-c1ccccc1

emission maximum (in ClCCl): 518 nm
Compound: Cc1cn2cc(-c3ccc(C#N)cc3)[n-][n+]2c1

emission maximum (in C1CCCCC1): 360 nm
Compound: COc1ccc(-c2ccc(-c3ccc(OC)cc3)cc2)cc1

emission maximum (in ClC(Cl)Cl): 576 nm
Compound: CCCCCCCCc1ccc(-c2c3cc(-c4cc(CCCCCCCC)c(-c5ccc(-c6sc(/C=C7\SC(N8CCCCC8)=NC7=O)cc6CCCCCCCC)s5)s4)sc3c(-c3ccc(CCCCCCCC)s3)c3cc(-c4cc(CCCCCCCC)c(-c5ccc(-c6sc(/C=C7\SC(N8CCCCC8)=NC7=O)cc6CCCCCCCC)s5)s4)sc23)s1

emission maximum (in C1CCOC1): 523 nm
Compound: CCOC(=O)c1ccc(C2=CC3=c4cc(-c5ccc(C(=O)OCC)cc5)c5nc(C(F)(F)C(F)(F)C(F)(F)F)nc6c(-c7ccc(C(=O)OCC)cc7)cc(c4c65)C4=CC(c5ccc(C(=O)OCC)cc5)=C5N=C(C(F)(F)C(F)(F)C(F)(F)F)N=C2C5C43)cc1 (stereo unspecified)

emission maximum (in ClCCl): 441 nm
Compound: C(S/C=C/c1ccc(-c2ccc(/C=C/SC=C(c3ccccc3)c3ccccc3)cc2)cc1)=C(c1ccccc1)c1ccccc1

Compound: CCN(CC)c1ccc(OC)c(C=O)c1
emission maximum (in CC#N): 548 nm
emission maximum (in CC(C)O): 600 nm
emission maximum (in CCCCCC): 470 nm
emission maximum (in CCOC(C)=O): 518 nm
emission maximum (in CO): 645 nm
emission maximum (in CS(C)=O): 558 nm
emission maximum (in Cc1ccccc1): 509 nm
emission maximum (in ClCCl): 538 nm

emission maximum (in CC#N): 500 nm
Compound: C[C@]12SC(=O)C=C1c1nc(-c3ccc(Cl)cc3Cl)[nH]c1C1=CC(=O)S[C@@]12C

Compound: CN1C(=CC2=C([O-])C(=CC3=[N+](C)c4ccccc4C3(C)C)C2=C2C(=O)NC(=O)NC2=O)C(C)(C)c2ccccc21
emission maximum (in ClC(Cl)Cl): 665 nm

Compound: CN(C)c1ccc2c3c(ccc2c1)CCCC3=O
emission maximum (in C1CCCCC1): 449 nm
emission maximum (in CC#N): 523 nm
emission maximum (in CC(C)O): 520 nm
emission maximum (in CCC(C)=O): 517 nm
emission maximum (in CCO): 495 nm
emission maximum (in CCOC(C)=O): 506 nm
emission maximum (in CS(C)=O): 538 nm
emission maximum (in Cc1ccccc1): 478 nm
emission maximum (in ClCCl): 511 nm
emission maximum (in Clc1ccccc1): 498 nm

emission maximum (in ClCCl): 430 nm
Compound: CCOC(=O)C1=C(C(=O)OCC)C2(c3ccccc3-c3ccccc32)[C@@H](c2ccc([N+](=O)[O-])cc2)C=C2c3cc(OC)c(OC)cc3CCN21

emission maximum (in CC#N): 543 nm
Compound: CC1=[N+]2C(=C(c3ccccc3)c3c4c(c(C)n3[B-]2(F)F)C2CCC4CC2)C2=C1C1CCC2CC1

— the Deep4Chem optical property database
